Reference: PubChem BioAssay AID248 (DTP/NCI, 2004)
“And” between values parts separate entries of the source, which are not always exact repeats. Equal entries are not always repeated. Inconclusive results and toxic doses are left out. No stated cut-off is given here; in the data, active means T/C of 150% or more; inactive means T/C below 125%.

Test system: L1210 leukemia ip in BDF1 mice, survival T/C
Experiment: NCI In Vivo Anticancer Drug Screen. Data for tumor model L1210 Leukemia (intraperitoneal) in B6D2F1 (BDF1) mice
Settings: endpoint: mean survival time, higher = longer survival
Outline: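 Read-out is survival time, reported as the treated-group measurement over the vehicle-control measurement.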

[1] = dose: 100.0 mg/kg/injection, schedule: Q01DX001 (ip), vehicle: saline
[2] = dose: 200.0 mg/kg/injection, schedule: Q01DX001 (ip), vehicle: saline
[3] = dose: 400.0 mg/kg/injection, schedule: Q01DX001 (ip), vehicle: saline
[4] = dose: 100.0 mg/kg/injection, schedule: Q01DX001 (ip), vehicle: carboxymethylcellulose (CMC)
[5] = dose: 200.0 mg/kg/injection, schedule: Q01DX001 (ip), vehicle: carboxymethylcellulose (CMC)
[6] = dose: 400.0 mg/kg/injection, schedule: Q01DX001 (ip), vehicle: carboxymethylcellulose (CMC)
[7] = dose: 100.0 mg/kg/injection, schedule: Q04DX003 (ip), vehicle: saline
[8] = dose: 200.0 mg/kg/injection, schedule: Q04DX003 (ip), vehicle: saline
[9] = dose: 400.0 mg/kg/injection, schedule: Q04DX003 (ip), vehicle: saline
[10] = dose: 12.5 mg/kg/injection, schedule: Q01DX001 (ip), vehicle: Klucel (hydroxypropylcellulose) (HPC)
[11] = dose: 25.0 mg/kg/injection, schedule: Q01DX001 (ip), vehicle: Klucel (hydroxypropylcellulose) (HPC)
[12] = dose: 100.0 mg/kg/injection, schedule: Q01DX001 (ip), vehicle: Klucel (hydroxypropylcellulose) (HPC)
[13] = dose: 50.0 mg/kg/injection, schedule: Q01DX001 (ip), vehicle: Klucel (hydroxypropylcellulose) (HPC)

Measured: T/C

O=C/C(Br)=C(/Br)C(=O)O
inactive: dose: 6.25 mg/kg/injection, schedule: Q04DX002 (ip), vehicle: saline 100 % of control | dose: 12.5 mg/kg/injection, schedule: Q04DX002 (ip), vehicle: saline 100 % of control | dose: 25.0 mg/kg/injection, schedule: Q04DX002 (ip), vehicle: saline + alcohol 114 % of control | dose: 25.0 mg/kg/injection, schedule: Q04DX002 (ip), vehicle: saline 111 % of control

O=C(OC(COC(c1ccccc1)(c1ccccc1)c1ccccc1)C(OC(=O)c1ccccc1)C(COC(c1ccccc1)(c1ccccc1)c1ccccc1)OC(=O)c1ccccc1)c1ccccc1 (centres undefined)
inactive: dose: 100.0 mg/kg/injection, schedule: Q04DX003 (ip), vehicle: Klucel (hydroxypropylcellulose) (HPC) 93 % of control | dose: 200.0 mg/kg/injection, schedule: Q04DX003 (ip), vehicle: Klucel (hydroxypropylcellulose) (HPC) 93 % of control | dose: 400.0 mg/kg/injection, schedule: Q04DX003 (ip), vehicle: Klucel (hydroxypropylcellulose) (HPC) 93 % of control

CCOC(=O)c1cc(OC)c[nH]1
inactive: dose: 50.0 mg/kg/injection, schedule: Q01DX001 (ip), vehicle: saline 100 % of control | [1] 94 % of control | [2] 88 % of control | [3] 105 % of control

CC(=O)OC1CC2CCC3C4CC=C(C(C)=O)C4(C)CCC3C2(C)CC1OC(C)=O (centres undefined)
inactive: dose: 75.0 mg/kg/injection, schedule: Q04DX003 (ip), vehicle: other 97 % of control | dose: 150.0 mg/kg/injection, schedule: Q04DX003 (ip), vehicle: other 97 % of control | dose: 300.0 mg/kg/injection, schedule: Q04DX003 (ip), vehicle: other 94 % of control

CC1(C)C/C(=C/c2ccc([N+](=O)[O-])cc2[N+](=O)[O-])C(=O)O1
inactive: dose: 50.0 mg/kg/injection, schedule: Q01DX001 (ip), vehicle: carboxymethylcellulose (CMC) 100 % of control | [4] 94 % of control | [5] 94 % of control | [6] 100 % of control

Cc1cc(Cl)sc1Cl
inactive: [4] 98 % of control | [5] 93 % of control | [6] 92 % of control

Cc1cn(C2CC(CO)CC2O)c(=O)[nH]c1=O (centres undefined)
inactive: dose: 50.0 mg/kg/injection, schedule: Q01DX009 (ip), vehicle: saline 104 % of control | dose: 100.0 mg/kg/injection, schedule: Q01DX009 (ip), vehicle: saline 107 % of control | dose: 200.0 mg/kg/injection, schedule: Q01DX009 (ip), vehicle: saline 107 % of control

CCC(C)CNC(C)=O (centres undefined)
inactive: [7] 109 % of control | [8] 106 % of control | [9] 109 % of control

COc1ccc(C(=O)OCC(Br)CBr)cc1 (centres undefined)
inactive: dose: 222.0 mg/kg/injection, schedule: Q01DX Z (ip), vehicle: methylcellulose (MC) 102 % of control | dose: 333.0 mg/kg/injection, schedule: Q01DX Z (ip), vehicle: methylcellulose (MC) 108 % of control | dose: 500.0 mg/kg/injection, schedule: Q01DX Z (ip), vehicle: methylcellulose (MC) 103 % of control

O=C(Nc1cccc(Cl)c1)NS(=O)(=O)c1ccccc1
inactive: dose: 100.0 mg/kg/injection, schedule: Q01DX009 (ip), vehicle: Klucel (hydroxypropylcellulose) (HPC) 97 % of control | dose: 200.0 mg/kg/injection, schedule: Q01DX009 (ip), vehicle: Klucel (hydroxypropylcellulose) (HPC) 105 % of control | dose: 400.0 mg/kg/injection, schedule: Q01DX009 (ip), vehicle: Klucel (hydroxypropylcellulose) (HPC) 106 % of control

ClCCN(CCCl)CCN1c2ccccc2Sc2ccccc21
inactive: dose: 9.37 mg/kg/injection, schedule: Q01DX009 (ip), vehicle: Klucel (hydroxypropylcellulose) (HPC) 114 % of control | [10] 114 % of control | dose: 12.5 mg/kg/injection, schedule: Q04DX003 (ip), vehicle: saline with Tween-80 103 % of control | dose: 16.5 mg/kg/injection, schedule: Q01DX001 (ip), vehicle: Klucel (hydroxypropylcellulose) (HPC) 100 % of control and 111 % of control | dose: 18.75 mg/kg/injection, schedule: Q01DX009 (ip), vehicle: Klucel (hydroxypropylcellulose) (HPC) 106 % of control | [11] 95 % of control and 112 % of control | dose: 25.0 mg/kg/injection, schedule: Q04DX003 (ip), vehicle: saline with Tween-80 108 % of control | dose: 29.0 mg/kg/injection, schedule: Q01DX015 (ip), vehicle: carboxymethylcellulose (CMC) 102 % of control | dose: 37.5 mg/kg/injection, schedule: Q01DX001 (ip), vehicle: Klucel (hydroxypropylcellulose) (HPC) 101 % of control and 122 % of control | dose: 37.5 mg/kg/injection, schedule: Q01DX009 (ip), vehicle: Klucel (hydroxypropylcellulose) (HPC) 89 % of control | dose: 50.0 mg/kg/injection, schedule: Q04DX003 (ip), vehicle: saline with Tween-80 92 % of control | dose: 85.0 mg/kg/injection, schedule: Q04DX003 (ip), vehicle: Klucel (hydroxypropylcellulose) (HPC) 115 % of control | dose: 88.8 mg/kg/injection, schedule: Q01DX001 (ip), vehicle: carboxymethylcellulose (CMC) 115 % of control | [12] 119 % of control | [4] 104 % of control | dose: 133.0 mg/kg/injection, schedule: Q01DX001 (ip), vehicle: carboxymethylcellulose (CMC) 113 % of control and 115 % of control

O=C1OC(c2ccccc2)(c2cccc3ccccc23)CC1c1ccccc1 (centres undefined)
inactive: [1] 98 % of control | [2] 98 % of control | [3] 89 % of control

O=C(CCc1ccccc1)NC1CCCCC1
inactive: [10] 104 % of control | dose: 12.5 mg/kg/injection, schedule: Q04DX003 (ip), vehicle: saline 88 % of control | [11] 104 % of control | dose: 25.0 mg/kg/injection, schedule: Q04DX003 (ip), vehicle: saline 88 % of control | [13] 98 % of control | dose: 50.0 mg/kg/injection, schedule: Q04DX003 (ip), vehicle: saline 93 % of control

COc1ccc(-n2c(=O)c(N=Nc3ccc(Br)cc3)c(O)n(-c3ccc(I)cc3)c2=S)cc1
inactive: [13] 103 % of control | [12] 100 % of control | dose: 200.0 mg/kg/injection, schedule: Q01DX001 (ip), vehicle: Klucel (hydroxypropylcellulose) (HPC) 91 % of control

O=C(Nc1ccccc1O)C(O)C(O)C(O)C(O)CO (centres undefined)
inactive: [7] 87 % of control | [8] 97 % of control | [9] 91 % of control

O=C(CBr)c1ccc2cc(Br)c3ccccc3c2c1
inactive: dose: 55.0 mg/kg/injection, schedule: Q01DX Z (ip), vehicle: methylcellulose (MC) 90 % of control | dose: 83.0 mg/kg/injection, schedule: Q01DX Z (ip), vehicle: methylcellulose (MC) 94 % of control | dose: 125.0 mg/kg/injection, schedule: Q01DX Z (ip), vehicle: methylcellulose (MC) 102 % of control

Cc1nc(N)nc(N)c1[N+](=O)[O-]
inactive: dose: 65.0 mg/kg/injection, schedule: Q01DX Z (oral), vehicle: methylcellulose (MC) 105 % of control | dose: 125.0 mg/kg/injection, schedule: Q01DX Z (oral), vehicle: methylcellulose (MC) 100 % of control | dose: 250.0 mg/kg/injection, schedule: Q01DX Z (oral), vehicle: methylcellulose (MC) 100 % of control

O=c1cc(O)nc(C(F)(F)F)[nH]1
inactive: dose: 29.0 mg/kg/injection, schedule: Q01DX Z (ip), vehicle: methylcellulose (MC) 92 % of control | dose: 44.0 mg/kg/injection, schedule: Q01DX Z (ip), vehicle: methylcellulose (MC) 96 % of control | dose: 66.0 mg/kg/injection, schedule: Q01DX Z (ip), vehicle: methylcellulose (MC) 103 % of control | dose: 100.0 mg/kg/injection, schedule: Q01DX Z (ip), vehicle: methylcellulose (MC) 100 % of control
